From patent US20240228987A1, “HEXOKINASE-DERIVED PEPTIDES AND THERAPEUTICAL USES THEREOF” (INSERM (INSTITUT NATIONAL DE LA SANTÉ ET DE LA RECHERCHE …, priority 2021, published 2024)
Where a SMILES comes first, the peptide text is derived from it. Where no end group is shown, it is not given here. [ ]: non-standard residue; d: D form. The star is where a group is joined. X1 = CC(C)(C(=O)*)n1cc(-c2cccc(C(F)(F)F)c2)nn1; Nle = CCCC[C@H](N)C(=O)O; Aib = CC(C)(N)C(=O)O

Experiments:
VDAC = target: T1, VDAC (Homo sapiens, UniProt P21796); assay: in-cellulo screening assay: HEK-293 cells transfected with mitoGCaMP2, MJ-induced mitochondrial Ca2+ release through VDAC; type: cell-based; details: for activity / affinity for VDAC on the screening assay (mitoGCaMP2 fluorescence): MJ 6 mM
T1 construct: HEK-293 cells, expressing VDAC and HK; endogenous in cells; host or cells: HEK-293 (ATCC), transfected only with the Ca2+ probes mitoGCaMP2 / GCaMP2
Protocol: The activity of the designed compounds was assessed on HEK-293 cells transfected with mitoGCaMP2. 40,000 cells per well were seeded in 96-well-microplates coated with Poly-D-Lysine (reference 655946, Greiner Bio-One, France) in 200 μl of DMEM supplemented with 10% FBS and 1% PS. 24 h after seeding, cells were transfected with 50 ng of mitoGCaMP2 plasmid per well using jet-PRIME reagent (Polyplus-transfection S.A, France) according to the manufacturer's recommendations. 48 h after transfection, a first measure of fluorescence was performed using the microplate reader CLARIOstar® (BMG Labtech, France). This measurement represented the basal level of Ca2+ into the mitochondria upon transfection. After a wash with 100 μl of PBS, cells were incubated with a mixture of pre-heated (37° C.) MJ at a final concentration of 6 mM and compounds at the indicated final concentrations in PBS containing 0.1% DMSO and 5% EtOH. After 35 min in a cell incubator, a second measure of fluorescence was performed using the microplate reader CLARIOstar®. This measure represented the level of mitochondrial Ca2+ according to the peptide activity. Compounds were tested in triplicates per microplates and in three or five independent experiments for each peptide. For dose effect curves, compounds were tested in triplicates per microplates and in three independent experiments. Results are expressed as the ratio between the second and first measures and normalized to the conditions without compounds containing only PBS with 0.1% DMSO and 5% EtOH. Results are expressed as the means±SD in histogram plots and dose response curves using GraphPad Prism software (version 8.0.1).
The biological screening of the peptide is based on the ability of methyl jasmonate (MJ) to binds and detaches HK-1 from mitochondrial VDAC in a time and dose dependent manner.^16,20 For this purpose, we developed an in-cellulo screening assay in which HEK-293 cells, expressing VDAC and HK,25 were transfected with GCaMP2, a cytoplasmic Ca2+-sensing probe, or with mitoGCaMP2, the same probe addressed to mitochondrial matrix. […] MJ that removes HK from VDAC was used to induce a Ca2+ release outside mitochondria measured through a drop in mitoGCaMP2 fluorescence and an increase in GCaMP2 fluorescence in cells.

[1] = target: Elastase (from porcine pancreas, EC 3.4.21.36) (Sus scrofa, UniProt P00772); details: Tris·HCl buffer pH 8, 37° C., peptides without Tat
Protocol: A stock solution of Elastase at 1 mg/mL was prepared in Tris·HCl buffer (50 mM, pH 8, containing 0.5 mM CaCl2,). The stock solution was diluted at 0.94 mg/mL with 658 μL of stock solution in 42 μL of Tris·HCl buffer. All peptides were dissolved in DMSO to prepare a 6.66 mmol/L stock solution. A more diluted peptide solution (0.666 mmol/L) was prepared with 70 μL of stock solution in 630 μL of Tris·HCl buffer pH 8. In a 1.5 mL Eppendorf, 890 μL of Tris·HCl pH 8 was introduced followed by 100 μL of peptide solution (0.666 mmol/L) and incubated for 15 min at 37° C. prior to degradation. Then, 10 μL of Elastase solution (0.94 mg/mL) was added. The reaction mixture was incubated up to 4h at 37° C. with shaking at 1000 rpm. Aliquots (50 μL) were taken at different time points, quenched with 450 μL of MeOH, and centrifuged for 20 min (14000 rpm) at 4° C. The supernatant was transferred into an injection vial and analyzed by LC-MS with an eluting program of 0.1% formic acid in water and 0.1% formic acid in acetonitrile (see analytical data section). The relative concentrations of the remaining peptides and the cleavage products were calculated by integration of the corresponding peak in the HPLC chromatogram/MS trace. A control peptide solution was prepared without the enzyme. […] All proteolytic degradation experiments were carried out in triplicate.

[2] = in-vitro metabolic stability in rat serum; type: in vitro ADME; details: 25% (v/v) rat serum
Protocol: FIG. 10: Study of the stability of NHKI derived sequence (3c′, 7a′, 7d′, 7f′-g′) towards rat serum (N=3 independent experiments). All peptides were tested at a concentration of 66.6 μmol/L in presence of 25% (v/v) of rat serum and water after incubation at 37° C. for 24 h. Errors bars show the standard deviation.
For each peptide, a stock solution in DMSO was prepared at a 6.66 mmol/L concentration. 70 μL of the solution were taken out and added to 630 μL of MilliQ water to make an aqueous peptide solution (0.666 mmol/L). The reaction consisted in 325 μL of MilliQ water and 125 μL of non-diluted rat serum pre-incubated at 37° C. for about 10-15 min before addition of 50 μL the peptide solution at 0.666 mmol/L. The mixture was incubated at 37° C. with shaking at 1000 rpm. Aliquots (25 μL) were taken at different time points (0 min, 5 min, 15 min, 30 min, 1h, 2h, 3h, 5h, 7h, 24h, 48h) and enzymatic reaction was quenched with 225p L of MeOH to precipitate all serum proteins. The Eppendorf tube was directly centrifuged (14000 rpm) for 20 min at 4° C. to remove precipitated proteins by pelleting.

sciatic nerve explants = assay: sciatic nerve explant culture and CARS imaging (demyelination); type: cell-based, mouse; details: 3 μM
Source text: FIG. 11: Effects of NHKI-derived peptides 3c, 5x, 7d and 7g on sciatic nerve explants cultured in medium supplemented with serum. (A) Representative CARS images showing myelin (green) of an intact sciatic nerve collected and immediately fixed in 4% PFA and a sciatic nerve explant cultured in medium supplemented with FBS referred as negative control. (B) Representative CARS images showing myelin (green) of sciatic nerve explants cultured in medium supplemented with FBS containing NHKI-derived peptides at 3 μM for 24 h. All nerves are represented in longitudinal sections. Healthy myelin sheath (white arrows), Node of Ranvier (white stars) and myelin ovoids (orange arrows) are illustrated. Scale bar: 20 μm. (C) Graph showing the percentage of damaged fibers in intact nerves (white plot), negative controls (light grey plot), 3c and its analog 7d (blue plots) 5x and its analog 7g (red plots). (N=3 independent experiments). Results are expressed as means±SD. Statistical analysis using one-way ANOVA followed by Dunnett's multiple comparison tests. *p<0.05, **p<0.01. ns, non-significant.
Twelve-week-old C57BL6/J mice were euthanized using Pentobarbital (54.7 mg/ml, 100 mg/kg, Centravet, France). First, sciatic nerves were collected, washed in PBS and their epineurium was removed. Next, 5 mm long nerves were put in 24-well microplates (NUNC, Thermo Fisher Scientific, France) in 500 μl of DMEM supplemented with 1% PS and with or without 10% FBS containing the compounds at 3 μM containing 0.1% DMSO, and further incubated in a humidified chamber at 37° C. and 5% CO2. Negative controls consisted in sciatic nerve explant cultures without compounds (only DMEM supplemented with 1% PS, with or without 10% FBS and 0.1% DMSO). Intact sciatic nerves collected and immediately fixed in 4% PFA served as a control of healthy myelin sheath for CARS imaging. After 24 h in culture, sciatic nerve explants were washed three times with PBS and fixed for 1 h in 4% PFA aqueous solution (Electron Microscopy Sciences, Thermo Fisher Scientific, France) at room temperature. All CARS images were acquired with a two-photon microscope LSM 7 MP coupled to an OPO (Zeiss, France) complemented by a delay line. A ×20 water immersion objective (W Plan Apochromat DIC VIS-IR, Zeiss, France) was used for image acquisition. Each acquisition was conducted in three independent experiments. For each experiment, three ROIs per conditions were used to quantify the percentage of damaged fibers per field using Zen software (Zen 2.3 lite, Zeiss, France). Results are expressed as means±SD.
Next, we tested NHKI-derived compound activity on sciatic nerve explant cultures in which Schwann cells demyelinate through a mechanism involving mitochondrial Ca2+ release through VDAC1.44,45,9 Intact myelin was imaged and quantified in sciatic nerve explants using Coherent Anti-Stokes Raman Scattering (CARS) nonlinear microscopy. […] Demyelination was quantified by measuring the percentage of damaged fibers, i.e. displaying ovoid formation, over the total number of fibers imaged.

Schwann cells = details: cited from earlier work
[3] = 24 h, medium supplemented with serum
[4] = compounds at 3 μM, compared with 3c, 4d or 5x

T1 sequence (P21796 2-283): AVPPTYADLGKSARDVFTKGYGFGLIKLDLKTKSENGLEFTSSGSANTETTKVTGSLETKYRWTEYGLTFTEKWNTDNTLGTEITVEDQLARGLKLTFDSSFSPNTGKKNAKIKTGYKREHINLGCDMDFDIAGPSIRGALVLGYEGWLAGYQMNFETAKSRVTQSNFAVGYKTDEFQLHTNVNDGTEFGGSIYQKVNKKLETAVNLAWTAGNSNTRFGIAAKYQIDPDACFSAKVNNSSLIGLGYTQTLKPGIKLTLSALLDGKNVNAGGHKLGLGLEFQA
Elastase (from porcine pancreas, EC 3.4.21.36), sequence (P00772 27-266): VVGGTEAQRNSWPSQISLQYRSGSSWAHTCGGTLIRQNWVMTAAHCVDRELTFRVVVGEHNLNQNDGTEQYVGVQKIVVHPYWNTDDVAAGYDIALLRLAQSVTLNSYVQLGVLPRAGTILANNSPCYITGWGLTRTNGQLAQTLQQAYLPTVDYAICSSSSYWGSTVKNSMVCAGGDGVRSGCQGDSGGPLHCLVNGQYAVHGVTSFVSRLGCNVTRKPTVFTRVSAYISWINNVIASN

CCCC[C@H](NC(=O)[C@H](CCC(N)=O)NC(=O)[C@@H]1CCCN1C(=O)[C@@H]1CCCN1C(=O)[C@H](CCCNC(=N)N)NC(=O)[C@H](CCCNC(=N)N)NC(=O)[C@H](CCCNC(=N)N)NC(=O)[C@H](CCC(N)=O)NC(=O)[C@H](CCCNC(=N)N)NC(=O)[C@H](CCCNC(=N)N)NC(=O)[C@H](CCCCN)NC(=O)[C@H](CCCCN)NC(=O)[C@H](CCCNC(=N)N)NC(=O)CNC(C)=O)C(=O)N[C@H](C(=O)N[C@@H](C)C(=O)N[C@@H](C)C(=O)N[C@@H](CCC(N)=O)C(=O)N[C@@H](CC(C)C)C(=O)N[C@@H](CC(C)C)C(=O)N[C@@H](C)C(=O)N[C@@H](Cc1ccc(O)cc1)C(=O)N[C@@H](Cc1ccc(O)cc1)C(=O)N[C@@H](Cc1ccccc1)C(=O)N[C@H](C(=O)N[C@@H](CCC(=O)O)C(=O)N[C@@H](CC(C)C)C(=O)N[C@@H](CCCCN)C(N)=O)[C@@H](C)O)[C@@H](C)CC [2a]
IC50 (VDAC): 13.9 ± 3.1 µM

CC(=O)N[C@@H](C)C(=O)N[C@@H](CCC(N)=O)C(=O)N[C@@H](CC(C)C)C(=O)N[C@@H](CC(C)C)C(=O)NC(C)(C)C(=O)N[C@@H](Cc1ccc(O)cc1)C(=O)N[C@@H](Cc1ccc(O)cc1)C(=O)N[C@@H](Cc1ccccc1)C(=O)N[C@H](C(=O)N[C@@H](CCC(=O)O)C(=O)N[C@@H](CC(C)C)C(=O)N[C@@H](CCCCN)C(N)=O)[C@@H](C)O [7a′] (Ac-AQLL[Aib]YYFTELK-NH2; N-terminus and C-terminus assumed)
stability towards elastase [1]: improve their stability towards elastase | remaining at 24 h, 66.6 µmol/L ([2]; 37° C., after 24 h, read-out: remaining compound in rat serum): ~65%

CC(=O)N[C@@H](C)C(=O)NC(C)(C)C(=O)N[C@@H](C)C(=O)NC(C)(C)C(=O)N[C@@H](C)C(=O)N[C@@H](CCC(N)=O)C(=O)N[C@@H](CC(C)C)C(=O)N[C@@H](CC(C)C)C(=O)NC(C)(C)C(=O)N[C@@H](Cc1ccc(O)cc1)C(=O)N[C@@H](Cc1ccc(O)cc1)C(=O)N[C@@H](Cc1ccccc1)C(=O)N[C@H](C(=O)N[C@@H](CCC(=O)O)C(=O)N[C@@H](CC(C)C)C(=O)N[C@@H](CCCCN)C(N)=O)[C@@H](C)O [7d′] (Ac-A[Aib]A[Aib]AQLL[Aib]YYFTELK-NH2; N-terminus and C-terminus assumed)
stability towards elastase [1]: improve their stability towards elastase

C[C@H](NC(=O)[C@H](Cc1c[nH]c2ccccc12)NC(=O)[C@H](Cc1c[nH]c2ccccc12)NC(=O)[C@H](CCC(N)=O)NC(=O)[C@H](C)NC(=O)C(C)(C)n1cc(-c2cccc(C(F)(F)F)c2)nn1)C(=O)N[C@@H](Cc1ccc(O)cc1)C(=O)N[C@@H](Cc1ccc(O)cc1)C(=O)N[C@@H](Cc1ccccc1)C(=O)N[C@H](C(=O)N[C@@H](CCC(=O)O)C(=O)N[C@@H](Cc1c[nH]c2ccccc12)C(=O)N[C@@H](CCCCN)C(=O)NCC(=O)N[C@@H](CCCNC(=N)N)C(=O)N[C@@H](CCCCN)C(=O)N[C@@H](CCCCN)C(=O)N[C@@H](CCCNC(=N)N)C(=O)N[C@@H](CCCNC(=N)N)C(=O)N[C@@H](CCC(N)=O)C(=O)N[C@@H](CCCNC(=N)N)C(=O)N[C@@H](CCCNC(=N)N)C(=O)N[C@@H](CCCNC(=N)N)C(=O)N1CCC[C@H]1C(=O)N1CCC[C@H]1C(=O)N[C@@H](CCC(N)=O)C(N)=O)[C@@H](C)O [7f] (X1-AQWWAYYFTEWKGRKKRRQRRRPPQ-NH2)
IC50 (VDAC): 2.6 ± 0.6 µM | stability towards elastase [1]: most stable compound

C[C@H](NC(=O)C(C)(C)n1cc(-c2cccc(C(F)(F)F)c2)nn1)C(=O)N[C@@H](CCC(N)=O)C(=O)N[C@@H](Cc1c[nH]c2ccccc12)C(=O)N[C@@H](Cc1c[nH]c2ccccc12)C(=O)NC(C)(C)C(=O)N[C@@H](Cc1ccc(O)cc1)C(=O)N[C@@H](Cc1ccc(O)cc1)C(=O)N[C@@H](Cc1ccccc1)C(=O)N[C@H](C(=O)N[C@@H](CCC(=O)O)C(=O)N[C@@H](Cc1c[nH]c2ccccc12)C(=O)N[C@@H](CCCCN)C(=O)NCC(=O)N[C@@H](CCCNC(=N)N)C(=O)N[C@@H](CCCCN)C(=O)N[C@@H](CCCCN)C(=O)N[C@@H](CCCNC(=N)N)C(=O)N[C@@H](CCCNC(=N)N)C(=O)N[C@@H](CCC(N)=O)C(=O)N[C@@H](CCCNC(=N)N)C(=O)N[C@@H](CCCNC(=N)N)C(=O)N[C@@H](CCCNC(=N)N)C(=O)N1CCC[C@H]1C(=O)N1CCC[C@H]1C(=O)N[C@@H](CCC(N)=O)C(N)=O)[C@@H](C)O [7g] (X1-AQWW[Aib]YYFTEWKGRKKRRQRRRPPQ-NH2; N-terminus assumed)
nerve fibers damage (sciatic nerve explants; [3]): significantly decreased nerve fibers damage | preservation of the myelin sheath (sciatic nerve explants; [3]): significantly preserve the myelin sheath at a similar level to an intact nerve | myelin sheath pattern (sciatic nerve explants; 24h, serum-free medium): same myelin sheath pattern as an intact nerve | percentage of damaged fibers (sciatic nerve explants; 24h, serum-free medium): significantly reduced the level of damaged fibers | activity / affinity for VDAC on the screening assay (mitoGCaMP2 fluorescence) (VDAC; [4]): significant higher activity | activity / affinity for VDAC on the screening assay (mitoGCaMP2 fluorescence) (VDAC; compounds at 10 μM): significantly more active than compounds 3c and 5x

CC(C)CCC[C@@H](C)[C@H]1CC[C@H]2[C@@H]3CCC4=CC(=NO)CC[C@]4(C)[C@H]3CC[C@]12C [olesoxime]
demyelination (Schwann cells): block demyelination | mitochondrial calcium release (Schwann cells): prevent mitochondrial calcium release

AQLWAYYYTEWK [5t, tested peptide also contains Tat]
activity / affinity for VDAC on the screening assay (mitoGCaMP2 fluorescence) (VDAC; [4]): beneficial effect

AQWLAYYLTELK [5l, tested peptide also contains Tat]
activity / affinity for VDAC on the screening assay (mitoGCaMP2 fluorescence) (VDAC; [4]): beneficial effect

AQWLAYYYTELK [5m, tested peptide also contains Tat]
activity / affinity for VDAC on the screening assay (mitoGCaMP2 fluorescence) (VDAC; [4]): equally accommodated

AQWWAYYFTEWK [5x, tested peptide also contains Tat]
percentage of damaged fibers (sciatic nerve explants; 24h, serum-free medium): significantly reduced the level of damaged fibers | activity / affinity for VDAC on the screening assay (mitoGCaMP2 fluorescence) (VDAC; [4]): more significant

Ac-AQLLAYYFTELKGRKKRRQRRRPPQ-NH2 [3c]
percentage of damaged fibers (sciatic nerve explants; 24h, serum-free medium): same percentage of damaged fibers as the negative control | remaining at 5 min, 66.6 µmol/L ([2]; 25% rat serum, after 5 min, preliminary experiment, read-out: remaining peptide in rat serum): 10%

[Nle]IAAQLWAYYY [6o]
activity / affinity for VDAC on the screening assay (mitoGCaMP2 fluorescence) (VDAC; [4]): equally accommodated

[Nle]IAAQWLAYYY [6m]
activity / affinity for VDAC on the screening assay (mitoGCaMP2 fluorescence) (VDAC; [4]): equally accommodated

[Nle]IAAQWWAYYL [6q]
activity / affinity for VDAC on the screening assay (mitoGCaMP2 fluorescence) (VDAC; [4]): more significant
